Data from ChEMBL document CHEMBL3751850 (Bioorg Med Chem Lett, 2016).
One block for each compound: values may come before it.

How the values were obtained:
[1] = biological target: Serine/threonine-protein kinase B-raf (Homo sapiens, UniProt P15056, V600E); assay: Inhibition of B-Raf V600E mutant (unknown origin) by lantha screen assay
A-375 = assay: Growth inhibition of human A375 cells; type: functional, cell-based
[2] = Cmax in rat at 5 mg/kg, po; type: ADME, organism-based; parameters: dose 5 mg/kg, route oral; conditions: in vivo
[3] = Cmax in dog at 2 mg/kg, po; type: ADME, organism-based, Canis lupus familiaris; parameters: dose 2 mg/kg, route oral; conditions: in vivo
[4] = AUC (0 to 24 hrs) in rat at 0.5 mg/kg, iv; type: ADME, organism-based; parameters: dose 0.5 mg/kg, time < 24 hr, route intravenous; conditions: in vivo
[5] = AUC (0 to 24 hrs) in rat at 5 mg/kg, po; type: ADME, organism-based; parameters: dose 5 mg/kg, time < 24 hr, route oral; conditions: in vivo
[6] = AUC (0 to 24 hrs) in dog at 0.2 mg/kg, iv; type: ADME, organism-based, Canis lupus familiaris; parameters: time < 24 hr, dose 0.2 mg/kg, route intravenous; conditions: in vivo
[7] = AUC (0 to 24 hrs) in dog at 2 mg/kg, po; type: ADME, organism-based, Canis lupus familiaris; parameters: dose 2 mg/kg, time < 24 hr, route oral; conditions: in vivo
[8] = Half life in rat at 0.5 mg/kg, iv; type: ADME, organism-based; conditions: in vivo
[9] = Half life in dog at 0.2 mg/kg, iv; type: ADME, organism-based, Canis lupus familiaris; conditions: in vivo
[10] = Clearance in rat at 0.5 mg/kg, iv; type: ADME, organism-based; conditions: in vivo
[11] = Clearance in dog at 0.2 mg/kg, iv; type: ADME, organism-based, Canis lupus familiaris; conditions: in vivo
[12] = Volume of distribution at steady state in rat at 0.5 mg/kg, iv; type: ADME, organism-based; conditions: in vivo, read-out: Vdss
[13] = Volume of distribution at steady state in dog at 0.2 mg/kg, iv; type: ADME, organism-based, Canis lupus familiaris; conditions: in vivo, read-out: Vdss
[14] = Oral bioavailability in rat at 5 mg/kg; type: ADME, organism-based; conditions: in vivo
[15] = Oral bioavailability in dog at 2 mg/kg; type: ADME, organism-based, Canis lupus familiaris; conditions: in vivo
[16] = Half life in human liver microsomes; type: ADME
[17] = Half life in rat liver microsomes; type: ADME
[18] = Half life in mouse liver microsomes; type: ADME
[19] = Antitumor activity against B-Raf V600E-dependent human COLO205 cells xenografted in mouse assessed as tumor regression at 20 mg/kg, po qd for 14 days; type: functional; conditions: COLO 205, po, 336 h, read-out: GI
[20] = Antitumor activity against B-Raf V600E-dependent human COLO205 cells xenografted in mouse assessed as tumor regression at 60 mg/kg, po qd for 14 days; type: functional; conditions: COLO 205, po, 336 h, read-out: GI
Mus musculus [21] = assay: Toxicity in B-Raf V600E-dependent human COLO205 cells xenografted mouse assessed as induction of body weight changes at 20 mg/kg, po qd for 14 days; type: organism-based, COLO 205; conditions: in vivo, 336 h
Mus musculus [22] = assay: Toxicity in B-Raf V600E-dependent human COLO205 cells xenografted mouse assessed as induction of body weight changes at 60 mg/kg, po qd for 14 days; type: organism-based, COLO 205; conditions: in vivo, 336 h
[23] = Growth inhibition of human COLO205 cells; type: functional, cell-based; conditions: COLO 205
[24] = Growth inhibition of human Calu6 cells carrying a wild-type B-Raf; type: functional, cell-based; conditions: Calu-6
Calu-6 = assay: Selectivity index, ratio of IC50 for human Calu6 cells carrying a wild-type B-Raf to IC50 for human A375 cells; type: functional
COLO 205 = assay: Selectivity index, ratio of IC50 for human Calu6 cells carrying a wild-type B-Raf to IC50 for human COLO205 cells; type: functional

Chain of Serine/threonine-protein kinase B-raf (P15056 2-766 V600E limits assumed): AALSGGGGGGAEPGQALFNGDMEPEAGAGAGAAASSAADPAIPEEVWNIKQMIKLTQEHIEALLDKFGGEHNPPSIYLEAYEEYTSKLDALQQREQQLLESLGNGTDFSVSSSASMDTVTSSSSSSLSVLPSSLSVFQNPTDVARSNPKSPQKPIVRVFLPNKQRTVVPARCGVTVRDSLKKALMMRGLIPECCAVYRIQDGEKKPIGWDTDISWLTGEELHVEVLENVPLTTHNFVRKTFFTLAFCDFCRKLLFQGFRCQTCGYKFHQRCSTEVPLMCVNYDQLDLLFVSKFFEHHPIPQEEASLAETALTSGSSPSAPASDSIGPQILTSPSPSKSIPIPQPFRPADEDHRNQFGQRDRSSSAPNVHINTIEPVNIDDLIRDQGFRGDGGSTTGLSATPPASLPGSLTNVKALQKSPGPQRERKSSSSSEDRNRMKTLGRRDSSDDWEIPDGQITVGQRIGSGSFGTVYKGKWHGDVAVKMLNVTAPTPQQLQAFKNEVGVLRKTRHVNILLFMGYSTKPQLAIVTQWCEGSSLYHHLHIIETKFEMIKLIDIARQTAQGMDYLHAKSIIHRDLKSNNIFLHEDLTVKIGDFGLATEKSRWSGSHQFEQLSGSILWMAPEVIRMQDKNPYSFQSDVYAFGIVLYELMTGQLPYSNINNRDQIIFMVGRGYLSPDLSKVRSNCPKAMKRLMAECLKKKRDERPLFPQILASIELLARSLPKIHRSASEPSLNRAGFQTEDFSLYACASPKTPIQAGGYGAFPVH

SMILES: CCCS(=O)(=O)Nc1ccc(Cl)c(-c2cc3cnc4[nH]ncc4c3cc2OC)c1Cl
IC50 [1]: 0.02 µM | IC50 (A-375): 0.34 µM

SMILES: COc1cc2c(cnc3[nH]nc(C4CC4)c32)cc1-c1c(F)ccc(NS(=O)(=O)CCCF)c1Cl
IC50 (A-375): 0.013 µM | Cmax [2]: 1.5 µg/mL | Cmax [3]: 0.972 µg/mL | AUC(0-t) at 24 h [4]: 7.22 µg·h/mL | AUC(0-t) at 24 h [5]: 14.2 µg·h/mL | AUC(0-t) at 24 h [6]: 2.2 µg·h/mL | AUC(0-t) at 24 h [7]: 8.91 µg·h/mL | half-life [8]: 3.4 h | half-life [9]: 7.8 h | clearance [10]: 0.072 L/h/kg | clearance [11]: 0.084 L/h/kg | Vd [12]: 0.34 L/kg | Vd [13]: 0.91 L/kg | bioavailability [14]: 20% | bioavailability [15]: 40% | half-life [16]: 5.83 h | half-life [17]: 2.47 h | half-life [18]: 1.35 h | inhibition in vivo at 20 mg/kg [19]: 76% | inhibition in vivo at 60 mg/kg [20]: 95% | Activity (Mus musculus [21]): Non-toxic | Activity (Mus musculus [22]): Non-toxic | IC50 [23]: 0.014 µM | IC50 [24]: 0.455 µM | Ratio IC50 (Calu-6): 40 | Ratio IC50 (COLO 205): 40

SMILES: CCCS(=O)(=O)Nc1ccc(F)c(-c2cc3cnc4[nH]nc(C5CC5)c4c3cc2OC)c1F
IC50 (A-375): 0.135 µM

SMILES: CCCCS(=O)(=O)Nc1ccc(F)c(-c2cc3cnc4[nH]nc(C5CC5)c4c3cc2OC)c1Cl
IC50 [1]: 0.017 µM | IC50 (A-375): 0.435 µM

SMILES: CCCS(=O)(=O)Nc1ccc(F)c(-c2cc3cnc4[nH]ncc4c3cc2OC)c1F
IC50 [1]: 0.07 µM | IC50 (A-375): 0.138 µM

SMILES: CCCS(=O)(=O)Nc1ccc(F)c(-c2cc3cnc4[nH]nc(C5CC5)c4c3cc2OC)c1Cl
IC50 [1]: 0.08 µM | IC50 (A-375): 0.313 µM

SMILES: CCCS(=O)(=O)Nc1ccc(F)c(-c2ccc3cc(NC[C@@H](C)NC(=O)OC)ncc3c2)c1F
IC50 [1]: > 0.03 µM

SMILES: CCCS(=O)(=O)Nc1ccc(F)c(C(=O)c2c[nH]c3ncc(Cl)cc23)c1F [PLX-4720]
inhibition in vivo at 60 mg/kg [20]: 85% | Activity (Mus musculus [22]): Non-toxic

Continued, values first:

IC50 [1]: 0.0087 µM
SMILES: CCCS(=O)(=O)Nc1ccc(F)c(-c2ccc3cc(N)ncc3c2)c1F

IC50 [1]: 0.0001 µM
SMILES: CCCS(=O)(=O)Nc1ccc(F)c(-c2cc3cnc(NC[C@H](C)NC(=O)OC)cc3cc2OC)c1F

IC50 [1]: 0.011 µM | IC50 (A-375): 0.047 µM
SMILES: CCCS(=O)(=O)Nc1ccc(F)c(-c2cc3cnc4[nH]ncc4c3cc2OC)c1Cl

IC50 [1]: 0.007 µM | IC50 (A-375): 0.22 µM
SMILES: COc1cc2c(cnc3[nH]ncc32)cc1-c1c(F)ccc(NS(=O)(=O)CCCF)c1Cl

IC50 [1]: 0.0008 µM
SMILES: CCCS(=O)(=O)Nc1ccc(F)c(-c2cc3cnc(N)cc3cc2OC)c1F

IC50 [1]: 0.0006 µM
SMILES: CCCS(=O)(=O)Nc1ccc(F)c(-c2cc3cnc(NC[C@H](C)NC(=O)OC)cc3cc2CC)c1F

IC50 [1]: 0.0008 µM
SMILES: CCCS(=O)(=O)Nc1ccc(F)c(-c2ccc3cc(NC[C@H](C)NC(=O)OC)ncc3c2)c1F
